Measurements taken from article PMC1563472, “In vitro growth inhibition of bloodstream forms of Trypanosoma brucei and Trypanosoma congolense by iron chelators” (Kinetoplastid Biology and Disease, 2006).
Read-outs that look alike come from different tables or passages of the source.

Legend:
[1] = test system: bloodstream forms of T. brucei 427-221a; experiment: Alamar Blue growth inhibition assay, T. brucei bloodstream forms; type: cell-based, Trypanosoma brucei; conditions: for IC50 ratio T. brucei/HL-60: IC50 ratio of cytotoxic to trypanocidal activity (selectivity index); for IC50: read-out: IC50 T. brucei
Method: (§1) The anti-trypanosomal activities and the general cytotoxicities of chelators were evaluated using the Alamar Blue® assay. For each reagent, the 50% inhibitory concentration (IC50) value, i.e. the concentration of a compound necessary to reduce the growth rate of the cells by 50% of that of controls, was determined.
(§2) Bloodstream forms of T. brucei TC221 was derived from the stock 427 [24] and was obtained from Prof. Peter Overath (Max-Planck Institute für Biologie, Tübingen, Germany). The animal origin of the T. brucei stock 427 cannot be definitely clarified anymore. Bloodstream forms of T. congolense STIB910 was cloned from T. congolense STIB249 which was isolated from a lion in Tansania in 1971 [25]. T. congolense STIB910 was kindly provided by Prof. Reto Brun (Swiss Tropical Institute, Switzerland). Human myeloid leukaemia HL-60 cells were obtained from the Deutsche Sammlung von Mikroorganismen und Zellkulturen GmbH (Braunschweig, Germany).
(§3) Bloodstream forms of T. brucei and T. congolense were grown in Baltz medium (EMEM plus 25 mM HEPES, 2.5 mM glucose, 1 mM Na-pyruvate, 0.05 mM hypoxanthine, 0.001 mM thymidine, 0.04 mM adenosine, 0.025 mM bathocuproindisulfonic acid, pH 7.5, 10 ml/l nonessential amino acids (100×)) supplemented with 16.7% heat-inactivated foetal bovine serum and goat serum, respectively, and 0.2 mM 2-mercaptoethanol. Human myeloid leukaemia HL-60 cells were propagated in RPMI 1640 medium supplemented with 2 mM L-glutamine and 10% heat-inactivated foetal bovine serum. All cultures were maintained in a humidified atmosphere containing 5% CO2 at 37°C (T. brucei and HL-60 cells) or at 34°C (T. congolense).
(§4) Cells were seeded into 96-well tissue culture plates in 200 μl medium containing various concentrations of chelators dissolved in H2O (deferoxamine, 2,3-dihydroxybenzoic acid, ethylenediamine-di-o-hydroxyphenylacetic acid, 5-sulfosalicylic acid, tropolone, 5-methyl-tropolone, 2,2'-bipyridine, 1,10-phenanthroline), 99% ethanol (2,4,6-tris(2pyridyl)-1,3,5-triazine, 4,7-diphenyl-1,10-phenanthroline, 8-hydroxyquinoline, dimethylglyoxime, quercetin), or 100% DMSO (bathocuproine). The controls contained the respective solvent alone. […] To ensure that the cells were in logarithmic growth phase during the entire experiment, they were seeded at an initial density of 1 × 10^4 T. brucei/ml, 4 × 10^5 T. congolense/ml, and 1 × 10^5 HL-60/ml, respectively. After 24 h (trypanosomes) or 43 h (HL-60) incubation, 20 μl of the colorimetric viability indicator Alamar Blue® was added to each well. The cells were incubated for a further 24 h (trypanosomes) or 5 h (HL-60) so that the total incubation time was 48 h. Then, the plates were read on a Dynatech MR5000 ELISA reader (Denkendorf, Germany), using a test wavelength of 550 nm and a reference wave length of 630 nm. Each test was set up in duplicate and repeated three times. The IC50 value was determined by linear interpolation according to the method described in [27].

[2] = test system: bloodstream forms of T. congolense STIB910; experiment: Alamar Blue growth inhibition assay, T. congolense bloodstream forms; type: cell-based, Trypanosoma congolense; conditions: for IC50 ratio T. congolense/HL-60: IC50 ratio of cytotoxic to trypanocidal activity (selectivity index); for IC50: read-out: IC50 T. congolense
Method: as §1, §2, §3, §4

[3] = test system: human myeloid leukaemia HL-60 cells; experiment: Alamar Blue general cytotoxicity assay, HL-60 cells; type: cell-based; conditions: read-out: IC50 HL-60 cells
Method: as §1, §2, §3, §4

[4] = test system: bloodstream forms of T. congolense STIB910; parameters: method as in PMID 11582539; conditions: bloodstream forms of T. congolense STIB910, identical experimental conditions; cited from earlier work
[5] = test system: bloodstream forms of T. brucei 427-221a; parameters: method as in PMID 11582539; conditions: cited from earlier work
[6] = Trypanosoma brucei, bloodstream forms T. brucei 427-221a, 48 h total incubation, Alamar Blue, 37°C
[7] = Trypanosoma congolense, bloodstream forms T. congolense STIB910, 48 h total incubation, Alamar Blue, 34°C
[8] = human myeloid leukaemia HL-60 cells, 48 h total incubation, Alamar Blue
[9] = Trypanosoma congolense, STIB910, 48 h
[10] = bloodstream forms T. brucei 427-221a, 48 h total incubation, Alamar Blue, 37°C

Row | Structure (SMILES) | IC50 ratio T. brucei/HL-60 [1] | IC50 [1, 6] [µM] | IC50 ratio T. congolense/HL-60 [2] | IC50 [2, 7] [µM] | IC50 [3, 8] [µM] | other results
1 | c1cnc2c(c1)ccc1cccnc12 [1,10-Phenanthroline] | 2.6 | 3.3 | 1.6 | 5.3 | 8.5 | –
2 | c1ccc(-c2ccccn2)nc1 [2,2'-Bipyridine] | – | – | – | – | – | IC50 ([1]; Trypanosoma brucei, 48 h): 46.2 µM; IC50 [2, 9]: 67 µM; IC50 ([3]; Homo sapiens, HL-60, 48 h): 28.3 µM
3 | O=C(O)c1cccc(O)c1O [2,3-Dihydroxybenzoic acid] | – | 220 | – | – | – | –
4 | c1ccc(-c2nc(-c3ccccn3)nc(-c3ccccn3)n2)nc1 [2,4,6-Tris(2-pyridyl)-1,3,5-triazine] | 3.2 | 28.6 | 1.2 | 75 | 90.1 | –
5 | c1ccc(-c2ccnc3c2ccc2c(-c4ccccc4)ccnc23)cc1 [4,7-Diphenyl-1,10-phenanthroline] | – | 2 | – | 4.5 | 48.3 | –
6 | Cc1ccc(O)c(=O)cc1 [5-Methyl-tropolone] | 2.0 | – | 1.6 | – | 31.1 | IC50 [1, 10]: 15.7 µM; IC50 ([2]; bloodstream forms T. congolense STIB910, 48 h total incubation, Alamar Blue, 34°C): 20 µM
7 | O=C(O)c1cc(S(=O)(=O)O)ccc1O [5-Sulfosalicylic acid] | – | – | – | – | – | IC50 ([1]; Trypanosoma brucei, 48 h): > 1000 µM; IC50 [2, 9]: > 1000 µM; IC50 ([3]; Homo sapiens, HL-60, 48 h): > 1000 µM
8 | Oc1cccc2cccnc12 [8-Hydroxyquinoline] | – | – | – | – | – | IC50 ([1]; Trypanosoma brucei, 48 h): 2.1 µM; IC50 [2, 9]: 206 µM; IC50 ([3]; Homo sapiens, HL-60, 48 h): 7.7 µM
9 | Cc1cc(-c2ccccc2)c2ccc3c(-c4ccccc4)cc(C)nc3c2n1 [Bathocuproine, 2,9-dimethyl-4,7-diphenyl-1,10-phenanthroline] | >3.3 | 3 | – | > 10 | > 10 | –
10 | CC(=O)N(O)CCCCCNC(=O)CCC(=O)N(O)CCCCCNC(=O)CCC(=O)N(O)CCCCCN [Deferoxamine] | – | – | – | – | – | IC50 ([1]; Trypanosoma brucei, 48 h): 3.3 µM; IC50 [2, 9]: 3.4 µM; IC50 ([3]; Homo sapiens, HL-60, 48 h): 97 µM
11 | CC(=NO)C(C)=NO [Dimethylglyoxime] | – | > 100 | – | > 100 | > 100 | –
12 | O=C(O)C(NCCNC(C(=O)O)c1ccccc1O)c1ccccc1O (stereo not drawn) [Ethylenediamine-di-o-hydroxyphenylacetic acid] | 2.7 | – | – | – | 325 | IC50 [1, 10]: 120 µM
13 | O=c1c(O)c(-c2ccc(O)c(O)c2)oc2cc(O)cc(O)c12 [Quercetin] | >6.1 | 16.3 | >1.6 | 62.6 | > 100 | –
14 | O=c1cccccc1O [Tropolone] | 0.5 | 12.5 | 0.3 | 18.7 | 6.2 | –
15 | CC(=O)NCC(=O)O.CC(=O)NCC(=O)O.N=C(N)c1ccc(N=NNc2ccc(C(=N)N)cc2)cc1 [diminazene aceturate] | – | – | – | – | – | IC50 [4]: 0.5 µM
16 | Cc1ccc(C(=O)Nc2ccc(S(=O)(=O)O)c3cc(S(=O)(=O)O)cc(S(=O)(=O)O)c23)cc1NC(=O)c1cccc(NC(=O)Nc2cccc(C(=O)Nc3cc(C(=O)Nc4ccc(S(=O)(=O)O)c5cc(S(=O)(=O)O)cc(S(=O)(=O)O)c45)ccc3C)c2)c1 [suramin] | – | – | – | – | – | IC50 ([5]; bloodstream forms of T. brucei 427-221a, identical experimental conditions): 0.4 µM; IC50 ratio (selectivity index) ([5]; cytotoxic/trypanocidal activity, drug used for sleeping sickness): 1944
